From US8329726B2, “Inhibitors of VEGF receptor and HGF receptor signaling” (MethylGene Inc., priority 2005, dated 2012)
Where two headings read alike, the source gives them in different places.

How the values were obtained:
[1] = test system: DU145; experiment: DU145 scattering inhibition (HGF dependent scattering); type: cell-based; conditions: Homo sapiens
From the text: (§1) HGF has well known activity in terms of inducing scattering and migration (wound healing) (Wells et al., Cell Motil Cytoskeleton. 2005 November 62(3):180-94; Miura et al., Urology 2001 December 58(6):1064-9; Nishimura et al., Int J Urol. 1998 May 5(3):276-81; Wang et al., Mol Cancer Ther. 2003 November; 2(11):1085-92; and Christensen et al., Cancer Res. 2003 Nov. 1; 63(21):7345-55).

[2] = test system: A549; experiment: A549 wound healing inhibition (HGF dependent migration); type: cell-based; conditions: Homo sapiens, A549 cells, read-out: A549 WOUND HEALING INHIB IC50
From the text: as §1

[3] = target: T1, VEGF receptor KDR (Homo sapiens, UniProt P35968); experiment: In vitro receptor tyrosine kinase assay (DELFIA), VEGF receptor KDR; type: biochemical
T1 construct: made in house; host or cells: Sf9 cells (Spodoptera frugiperda), baculovirus
T1 sequence (P35968 806-1356): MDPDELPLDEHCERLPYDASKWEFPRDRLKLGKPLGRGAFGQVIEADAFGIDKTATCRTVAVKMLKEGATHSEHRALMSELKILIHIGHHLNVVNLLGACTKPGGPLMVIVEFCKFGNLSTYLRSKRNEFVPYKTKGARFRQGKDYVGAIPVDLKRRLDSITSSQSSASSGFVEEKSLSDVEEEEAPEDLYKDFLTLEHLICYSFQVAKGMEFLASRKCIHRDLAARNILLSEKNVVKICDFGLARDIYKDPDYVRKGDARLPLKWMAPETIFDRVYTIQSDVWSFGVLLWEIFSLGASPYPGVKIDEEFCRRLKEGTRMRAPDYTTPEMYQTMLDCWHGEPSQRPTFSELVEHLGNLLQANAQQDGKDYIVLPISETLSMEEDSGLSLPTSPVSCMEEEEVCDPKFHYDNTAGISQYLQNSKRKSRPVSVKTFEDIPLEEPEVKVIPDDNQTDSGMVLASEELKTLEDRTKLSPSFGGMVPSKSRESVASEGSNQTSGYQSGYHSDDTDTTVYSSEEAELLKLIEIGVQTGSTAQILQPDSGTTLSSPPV
Procedure: In the case of VEGF receptor KDR a 1.6-kb cDNA corresponding to the catalytic domain of VEGFR2 or KDR (Genbank accession number AF035121 amino acid 806 to 1356) was cloned into the Pst I site of the pDEST20 Gateway vector (Invitrogen) for the production of a GST-tagged version of that enzyme.
The GST-VEGFR2806-1356 protein was expressed in […] (Spodoptera frugiperda) upon infection with recombinant baculovirus construct. […] Cell pellets were frozen at −80° C. until purification was performed.
The supernatant (cell extract) was used as starting material for purification of GST-VEGFR2806-1356.
The supernatant was loaded onto a GST-agarose column (Sigma) equilibrated with PBS pH 7.3. Following a four column volume (CV) wash with PBS pH 7.3+1% Triton X-100 and 4 CV wash with buffer B (50 mM Tris pH 8.0, 20% glycerol and 100 mM NaCl), bound proteins were step eluted with 5 CV of buffer B supplemented with 5 mM DTT and 15 mM glutathion. GST-VEGFR2806-1356 enriched fractions from this chromatography step were pooled based on U.V. trace i.e. fractions with high O.D.280. Final GST-VEGFR2806-1356 protein preparations concentrations were about 0.7 mg/ml with purity approximating 70%.
(§2) The coated plates were washed and stored at 4° C. […] After incubation, the kinase reactions were quenched with EDTA and the plates were washed.

[4] = target: T2, recombinant human c-Met/HGF receptor (Homo sapiens, UniProt P08581); experiment: In vitro receptor tyrosine kinase assay (DELFIA), c-Met/HGF receptor; type: biochemical
T2 construct: His tag (pBlueBacHis2A vector); made in house; host or cells: Hi-5 cells (Trichoplusia ni), baculovirus
T2 sequence (P08581 1078-1337): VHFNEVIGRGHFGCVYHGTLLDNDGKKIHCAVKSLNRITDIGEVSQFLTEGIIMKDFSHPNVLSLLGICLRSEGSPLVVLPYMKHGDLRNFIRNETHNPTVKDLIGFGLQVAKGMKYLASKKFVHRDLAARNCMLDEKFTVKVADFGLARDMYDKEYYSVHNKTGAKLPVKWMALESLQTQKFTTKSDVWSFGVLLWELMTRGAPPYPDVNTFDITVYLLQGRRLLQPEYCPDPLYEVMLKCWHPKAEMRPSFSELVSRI
Procedure: Cell pellets were frozen at −80° C. until purification was performed.
as §2

[5] = DU-145, HGF dependent scattering, DU145 cells, read-out: DU145 SCATTERING INHIB IC50
[6] = GST-VEGFR2 806-1356, 0.6 uM ATP, DELFIA, read-out: VEGFR (IC50)
[7] = recombinant c-Met IC, 10 uM ATP, DELFIA, read-out: C-Met (IC50)
[8] = DU-145, read-out: DU145 […] IC50

SMILES | IC50 [1, 5] [nM] | IC50 [2] [nM] | IC50 ([3]; read-out: VEGFR IC50) [nM] | IC50 ([4]; read-out: CMET IC50) [nM] | IC50 [3, 6] [nM] | IC50 [4, 7] [nM] | IC50 [1, 8] [nM] | IC50 [4] [nM]
O=C(Nc1ccc(Oc2ccnc3cc(-c4cn(CCN5CCCC5)cn4)sc23)c(F)c1)C1CCN(c2ccccc2)C1=O (centres unmarked) | < 1000 | 1000 to 5000 | < 50 | 50 to 250 | – | – | – | –
CC(C)n1cnc(-c2cc3nccc(Oc4ccc(NC(=O)CC(=O)Nc5nccs5)cc4F)c3s2)c1 | 1000 to 5000 | 1000 to 5000 | < 50 | < 50 | – | – | – | –
Cn1ccnc1-c1cc2nccc(Oc3ccc(NC(=O)N4CCN(c5ccccc5)C4=O)cc3F)c2s1 | < 1000 | < 1000 | < 50 | < 50 | – | – | – | –
CCn1cnc(-c2cc3nccc(Oc4ccc(NC(=O)N5CCN(c6ccccc6)C5=O)cc4F)c3s2)c1 | < 1000 | < 1000 | < 50 | < 50 | – | – | – | –
O=C(Nc1ccc(Oc2ccnc3cc(-c4cn(CCCN5CCCC5)cn4)sc23)c(F)c1)C1CCN(c2ccccc2)C1=O (centres unmarked) | < 1000 | < 1000 | < 50 | < 50 | – | – | – | –
COCn1cnc(-c2cc3nccc(Oc4ccc(NC(=O)CC(=O)Nc5ccccc5OC)cc4F)c3s2)c1 | < 1000 | 1000 to 5000 | < 50 | 50 to 250 | – | – | – | –
Cn1cnc(-c2cc3nccc(Nc4ccc(NC(=O)C5(C(=O)Nc6ccc(F)cc6)CC5)cc4F)c3s2)c1 | < 1000 | < 1000 | < 50 | < 50 | – | – | – | –
Cn1ccnc1-c1cc2nccc(Oc3ccc(NC(=O)CC(=O)Oc4ccccc4)cc3F)c2s1 [Compound 47, N-{3-Fluoro-4-[2-(1-methyl-1H-imidazol-2-yl)-thieno[3,2-b]pyridin-7-yloxy]-phenyl}-malonamic acid phenyl ester] | – | – | – | – | 14 | 173 | – | –
CN1CCN(Cc2ccc(-c3cc4nccc(Oc5ccc(NC(=O)N6CCN(c7ccccc7)C6=O)cc5F)c4s3)cc2)CC1 | < 1000 | < 1000 | < 50 | < 50 | – | – | – | –
CCn1cnc(-c2cc3nccc(Oc4ccc(NC(=O)C5(C(=O)Nc6ccccc6OC)CC5)cc4F)c3s2)c1 | < 1000 | < 1000 | < 50 | < 50 | – | – | – | –
Cn1cnc(-c2cc3nccc(Oc4ccc(NC(=O)N5CCN(c6ccccc6)C5=S)cc4F)c3s2)c1 | > 10000 | > 10000 | > 500 | > 500 | – | – | – | –
COc1ccccc1NC(=O)CC(=O)Nc1ccc(Oc2ccnc3cc(-c4ccc(OCCCN(C)C)nc4)sc23)c(F)c1 | 1000 to 5000 | 1000 to 5000 | 250 to 500 | 50 to 250 | – | – | – | –
CN1CCN(CCN(C)Cc2ccc(-c3cc4nccc(Oc5ccc(NC(=O)CC(=O)Nc6cccc(F)c6)cc5F)c4s3)cc2)CC1 | 1000 to 5000 | 1000 to 5000 | < 50 | 50 to 250 | – | – | – | –
CC(C)n1cnc(-c2cc3nccc(Oc4ccc(NC(=O)CC(=O)Nc5ccccc5F)cc4F)c3s2)c1 | < 1000 | 1000 to 5000 | < 50 | < 50 | – | – | – | –
Cn1ccnc1-c1cc2nccc(Oc3ccc(NC(=O)CC(=O)Nc4ccccc4F)cc3F)c2s1 [drawing 285] | < 1000 | < 1000 | < 50 | < 50 | – | – | – | –
COc1ccccc1NC(=O)CC(=O)Nc1ccc(Oc2ccnc3cc(-c4ccc(CN5CCCC5)cc4)sc23)c(F)c1 [Compound 48, N^1-(3-Fluoro-4-(2-(4-(pyrrolidin-1-ylmethyl)phenyl)-thieno[3,2-b]pyridin-7-yloxy)phenyl)-N^3-(2-methoxyphenyl)malonamide] | – | – | – | – | 13 | 60 | – | –
CC(C(=O)Nc1ccccc1)C(=O)Nc1ccc(Oc2ccnc3cc(-c4nccn4C)sc23)c(F)c1 (centres unmarked) [Compound 38, N^1-(3-Fluoro-4-(2-(1-methyl-1H-imidazol-2-yl)thieno[3,2-b]pyridin-7-yloxy)phenyl)-2-methyl-N^3-phenylmalonamide] | – | – | – | – | 5 | 77 | – | –
Cn1cncc1-c1cc2nccc(Oc3ccc(NC(=O)CC(=O)Nc4cccnc4)cc3F)c2s1 [Compound 41, N-{3-Fluoro-4-[2-(3-methyl-3H-imidazol-4-yl)-thieno[3,2-b]pyridin-7-yloxy]-phenyl}-N′-pyridin-3-yl-malonamide] | – | – | – | – | 24 | 132 | – | –
CCn1cnc(-c2cc3nccc(Oc4ccc(NC(=O)CC(=O)Nc5ccccc5)cc4F)c3s2)c1 [drawing 291] | – | – | 50 to 250 | < 50 | – | – | – | –
Cn1cnc(-c2cc3nccc(Oc4ccc(NC(=O)N5CCN(c6ccccc6)C5=O)cc4F)c3s2)c1 | – | < 1000 | < 50 | – | – | – | < 1000 | –
O=C(CC(=O)Nc1ccc(Oc2ccnc3ccsc23)c(F)c1)Nc1ccccc1 [Compound 5a, N^1-(3-Fluoro-4-(thieno[3,2-b]pyridin-7-yloxy)phenyl)-N^3-phenylmalonamide] | – | – | – | – | 199 | 270 | – | –
CN(C)[C@@H]1CCN(C(=O)c2cc3nccc(Oc4ccc(NC(=O)CC(=O)Nc5ccccc5)cc4F)c3s2)C1 [Compound 5g, (R)—N^1-(4-(2-(3-(Dimethylamino)pyrrolidine-1-carbonyl)thieno[3,2-b]pyridin-7-yloxy)-3-fluorophenyl)-N^3-phenylmalonamide] | – | – | – | – | 89 | 65 | – | –
CCn1cnc(-c2cc3nccc(Oc4ccc(NC(=O)CC(=O)Nc5ccccc5OC)cc4F)c3s2)c1 [Compound 28b, N^1-(4-(2-(1-Ethyl-1H-imidazol-4-yl)thieno[3,2-b]pyridin-7-yloxy)-3-fluorophenyl)-N^3-(2-methoxyphenyl)malonamide] | – | – | – | – | 3 | 25 | – | –
CN(c1ccc(NC(=O)C2(C(=O)Nc3ccccc3)CC2)cc1F)c1ccnc2cc(-c3cn(C)cn3)sc12 | < 1000 | 1000 to 5000 | – | 50 to 250 | – | – | – | –
Cn1cnc(-c2cc3nccc(Oc4ccc(NC(=O)CC(Nc5ccccc5)C(F)(F)F)cc4F)c3s2)c1 (centres unmarked) | – | 1000 to 5000 | 50 to 250 | – | – | – | 1000 to 5000 | –
Cn1cnc(-c2cc3nccc(Oc4ccc(NC(CC(=O)Nc5ccccc5)C(F)(F)F)cc4F)c3s2)c1 (centres unmarked) | – | 1000 to 5000 | < 50 | – | – | – | 1000 to 5000 | –
O=C(CC(=O)Nc1ccc(Oc2ccnc3cc(C(=O)N4CCCC4)sc23)c(F)c1)Nc1ccccc1 [drawing 280] | – | – | < 50 | < 50 | – | – | – | –
CCn1cnc(-c2cc3nccc(Oc4ccc(NC(=O)CC(=O)Nc5ccccc5)cc4F)c3s2)c1 [Compound 5d, N^1-(4-(2-(1-Ethyl-1H-imidazol-4-yl)thieno[3,2-b]pyridin-7-yloxy)-3-fluorophenyl)-N^3-phenylmalonamide] | – | – | – | – | 5 | – | – | 19
CCn1cnc(-c2cc3nccc(Oc4ccc(NC(=O)CC(=O)Nc5ccccc5F)cc4F)c3s2)c1 [Compound 30b, N^1-(4-(2-(1-Ethyl-1H-imidazol-4-yl)thieno[3,2-b]pyridin-7-yloxy)-3-fluorophenyl)-N^3-(2-fluorophenyl)malonamide] | – | – | – | – | – | 24 | – | –
